{
  "source": "patent US9073967B2",
  "about": "“High salt-resistance antibacterial peptide and method for producing the same” (NATIONAL TSING HUA UNIVERSITY, priority 2011, dated 2015)",
  "key": {"P. arugenosa ATCC 27853 [1]": {"tested_on": "P. arugenosa ATCC 27853", "assay": "Antibacterial ability in different salt (NaCl) concentration, LYM medium", "description": "(§4) All bacteria strains of above microbes were cultured in LYM medium. […] The NaCl concentrations in LYM were divided into four groups of 50 mM, 100 mM, 200 mM, 300 mM and the microbes were cultured in the four group of LYM and diluted to a 10^4 CFU/ml bacterial solution. Then added 100 μl of the bacterial solution into 96-well culture dish and added different concentration of antibacterial peptides P113, Phe-P113, Nal-P113 or Bip-P113 to evaluate the antibacterial ability in 50 mM, 100 mM, 200 mM, 300 mM concentration of NaCl. (Note: In addition to NaCl, the LYM medium also contains 5.4 mM KCl, 5.6 mM Na2HPO4, 0.5 mM MgSO4, and 1.0 mM sodium citrate. Besides, 0.4 mg of ZnCl2, 2.0 mg of FeCl3.6H2O, 0.1 mg of CuSO4.5H2O, 0.1 mg of MnSO4.H2O, 0.1 mg of Na2B4O7.10H2O, 700 mg of amino acid mixtures without tryptophan (Clontech), and 20 mg of L-Tryptophan were added per liter of medium. Then added moderate amount of glucose, amino acid, and vitamins mixture from the RPM1-1640 Select-Amine Kit)"}, "S. aureus ATCC 29213 [2]": {"tested_on": "S. aureus ATCC 29213", "assay": "Antibacterial ability in different salt (NaCl) concentration, LYM medium", "description": "as §4"}, "S. aureus ATCC 25923 [3]": {"tested_on": "S. aureus ATCC 25923", "assay": "Antibacterial ability in different MgCl2 concentration", "type": "cell-based"}, "P. arugenosa ATCC 27853 [4]": {"tested_on": "P. arugenosa ATCC 27853", "assay": "Antibacterial ability in different MgCl2 concentration", "type": "cell-based"}, "E. coli ATCC 25922 [5]": {"tested_on": "E. coli ATCC 25922", "assay": "Antibacterial ability in different MgCl2 concentration", "type": "cell-based"}, "P. arugenosa ATCC 9027 [6]": {"tested_on": "P. arugenosa ATCC 9027", "assay": "Antibacterial ability in different MgCl2 concentration", "type": "cell-based"}, "S. aureus ATCC 29213 [7]": {"tested_on": "S. aureus ATCC 29213", "assay": "Antibacterial ability in different MgCl2 concentration", "type": "cell-based"}, "S. aureus ATCC 19636 [8]": {"tested_on": "S. aureus ATCC 19636", "assay": "Antibacterial ability in different MgCl2 concentration", "type": "cell-based"}, "P. arugenosa ATCC 9027 [9]": {"tested_on": "P. arugenosa ATCC 9027", "assay": "Antibacterial ability in different salt (NaCl) concentration, LYM medium", "description": "as §4"}, "E. coli ATCC 25922 [10]": {"tested_on": "E. coli ATCC 25922", "assay": "Antibacterial ability in different salt (NaCl) concentration, LYM medium", "description": "as §4"}, "S. aureus ATCC 25923 [11]": {"tested_on": "S. aureus ATCC 25923", "assay": "Antibacterial ability in different salt (NaCl) concentration, LYM medium", "description": "as §4"}, "[12]": {"tested_on": "Staphylococcus aureus strains ATCC 29213", "assay": "Antibacterial activity assay, NCCLS microdilution MIC in MHB", "type": "cell-based", "source_text": "(§1) For testing the antibacterial ability of Phe-P113, Nal-P113 and Bip-P113 in different salt concentration, we use Antibacterial activity assay to perform the test. Three bacteria strains are used: Eschericha coli strains (ATCC 25922), Staphylococcus aureus strains (ATCC 25923, 29213 and 19636, methicillin-resistant) and Pseudomonas aeruginosa strains (ATCC 27853 and 9027, ampicillin-resistant).\n(§2) The microdilution method of National Committee for Clinical Laboratory Standards (NCCLS) is used to evaluate ‘The minimal inhibition concentration (MIC)’. The minimum concentration that can inhibit 90% or more microbes is the ‘minimal inhibition concentration’.\n(§3) In the microdilution method, the 1 μl peptide solution (The concentration is between the range of 5000 μg/ml to 78.1 μg/ml) and the 99 μl inoculums (5×10^5 CFU/ml) is mixed incubated in 96-well culture dish coated with polyethylene under 37° C. for 16 hr. Then evaluated the turbidity in O.D.600 by ELISA plate reader (Thermo Max, Molecular Devices, Sunnyvale, Calif.). Take the Muller-Hinton Broth (MHB) and inoculums suspension with adding peptides as negative and positive control group relatively. The result of MIC is the minimum concentration of peptides that can inhibit the bacteria growth (equal to or more than 90%)."}, "[13]": {"tested_on": "Staphylococcus aureus strains ATCC 19636", "assay": "Antibacterial activity assay, NCCLS microdilution MIC in MHB", "type": "cell-based", "source_text": "as §1, §2, §3"}, "[14]": {"tested_on": "Pseudomonas aeruginosa strains ATCC 27853", "assay": "Antibacterial activity assay, NCCLS microdilution MIC in MHB", "type": "cell-based", "source_text": "as §1, §2, §3"}, "[15]": {"tested_on": "Staphylococcus aureus strains ATCC 25923", "assay": "Antibacterial activity assay, NCCLS microdilution MIC in MHB", "type": "cell-based", "source_text": "as §1, §2, §3"}, "[16]": {"tested_on": "Pseudomonas aeruginosa strains ATTC 9027", "assay": "Antibacterial activity assay, NCCLS microdilution MIC in MHB", "type": "cell-based", "source_text": "as §1, §2, §3"}, "[17]": {"tested_on": "Eschericha coli strains ATCC 25922", "assay": "Antibacterial activity assay, NCCLS microdilution MIC in MHB", "type": "cell-based", "source_text": "as §1, §2, §3"}, "S. aureus ATCC 19636 [18]": {"tested_on": "S. aureus ATCC 19636", "assay": "Antibacterial ability in different salt (NaCl) concentration, LYM medium", "description": "as §4"}},
  "note": "Where a SMILES comes first, the peptide text is derived from it.",
  "data": [
    {"smiles": "C[C@H](N)C(=O)N[C@@H](CCCCN)C(=O)N[C@@H](CCCNC(=N)N)C(=O)N[C@@H](Cc1c[nH]cn1)C(=O)N[C@@H](Cc1c[nH]cn1)C(=O)NCC(=O)N[C@@H](Cc1ccc(O)cc1)C(=O)N[C@@H](CCCCN)C(=O)N[C@@H](CCCNC(=N)N)C(=O)N[C@@H](CCCCN)C(=O)N[C@@H](Cc1ccccc1)C(=O)N[C@@H](Cc1c[nH]cn1)C(N)=O", "note": "[P113, AKRHHGYKRKFH-NH2 (SEQ ID NO: 1)] (H-AKRHHGYKRKFH-NH2; N-terminus assumed)", "values": [
      {"measurement": "antibacterial ability (MIC)", "setting": "P. arugenosa ATCC 27853 [1]; NaCl 50 mM", "value": 50},
      {"measurement": "antibacterial ability (MIC)", "setting": "P. arugenosa ATCC 27853 [1]; NaCl 100 mM", "value": 50},
      {"measurement": "antibacterial ability (MIC)", "setting": "P. arugenosa ATCC 27853 [1]; NaCl 200 mM", "value": ">50"},
      {"measurement": "antibacterial ability (MIC)", "setting": "P. arugenosa ATCC 27853 [1]; NaCl 300 mM", "value": ">50"},
      {"measurement": "antibacterial ability (MIC)", "setting": "S. aureus ATCC 29213 [2]; NaCl 50 mM", "value": 50},
      {"measurement": "antibacterial ability (MIC)", "setting": "S. aureus ATCC 29213 [2]; NaCl 100 mM", "value": 50},
      {"measurement": "antibacterial ability (MIC)", "setting": "S. aureus ATCC 29213 [2]; NaCl 200 mM", "value": ">50"},
      {"measurement": "antibacterial ability (MIC)", "setting": "S. aureus ATCC 29213 [2]; NaCl 300 mM", "value": ">50"},
      {"measurement": "antibacterial ability (MIC)", "setting": "S. aureus ATCC 25923 [3]; Control group", "value": 12.5, "unit": "µg/mL"},
      {"measurement": "antibacterial ability (MIC)", "setting": "S. aureus ATCC 25923 [3]; MgCl2 0.5 mM", "value": 50, "unit": "µg/mL"},
      {"measurement": "antibacterial ability (MIC)", "setting": "S. aureus ATCC 25923 [3]; MgCl2 1.5 mM", "value": 50, "unit": "µg/mL"},
      {"measurement": "antibacterial ability (MIC)", "setting": "S. aureus ATCC 25923 [3]; MgCl2 2.5 mM", "value": 50, "unit": "µg/mL"},
      {"measurement": "antibacterial ability (MIC)", "setting": "P. arugenosa ATCC 27853 [4]; Control group", "value": 25, "unit": "µg/mL"},
      {"measurement": "antibacterial ability (MIC)", "setting": "P. arugenosa ATCC 27853 [4]; MgCl2 0.5 mM", "value": 50, "unit": "µg/mL"},
      {"measurement": "antibacterial ability (MIC)", "setting": "P. arugenosa ATCC 27853 [4]; MgCl2 1.5 mM", "value": 50, "unit": "µg/mL"},
      {"measurement": "antibacterial ability (MIC)", "setting": "P. arugenosa ATCC 27853 [4]; MgCl2 2.5 mM", "value": 50, "unit": "µg/mL"},
      {"measurement": "antibacterial ability (MIC)", "setting": "E. coli ATCC 25922 [5]; Control group", "value": 12.5, "unit": "µg/mL"},
      {"measurement": "antibacterial ability (MIC)", "setting": "E. coli ATCC 25922 [5]; MgCl2 0.5 mM", "value": 12.5, "unit": "µg/mL"},
      {"measurement": "antibacterial ability (MIC)", "setting": "E. coli ATCC 25922 [5]; MgCl2 1.5 mM", "value": 25, "unit": "µg/mL"},
      {"measurement": "antibacterial ability (MIC)", "setting": "E. coli ATCC 25922 [5]; MgCl2 2.5 mM", "value": 25, "unit": "µg/mL"},
      {"measurement": "antibacterial ability (MIC)", "setting": "P. arugenosa ATCC 9027 [6]; Control group", "value": 12.5, "unit": "µg/mL"},
      {"measurement": "antibacterial ability (MIC)", "setting": "P. arugenosa ATCC 9027 [6]; MgCl2 0.5 mM", "value": "> 50", "unit": "µg/mL"},
      {"measurement": "antibacterial ability (MIC)", "setting": "P. arugenosa ATCC 9027 [6]; MgCl2 1.5 mM", "value": "> 50", "unit": "µg/mL"},
      {"measurement": "antibacterial ability (MIC)", "setting": "P. arugenosa ATCC 9027 [6]; MgCl2 2.5 mM", "value": "> 50", "unit": "µg/mL"},
      {"measurement": "antibacterial ability (MIC)", "setting": "S. aureus ATCC 29213 [7]; Control group", "value": 12.5, "unit": "µg/mL"},
      {"measurement": "antibacterial ability (MIC)", "setting": "S. aureus ATCC 29213 [7]; MgCl2 0.5 mM", "value": 12.5, "unit": "µg/mL"},
      {"measurement": "antibacterial ability (MIC)", "setting": "S. aureus ATCC 29213 [7]; MgCl2 1.5 mM", "value": 25, "unit": "µg/mL"},
      {"measurement": "antibacterial ability (MIC)", "setting": "S. aureus ATCC 29213 [7]; MgCl2 2.5 mM", "value": 25, "unit": "µg/mL"},
      {"measurement": "antibacterial ability (MIC)", "setting": "S. aureus ATCC 19636 [8]; Control group", "value": 50, "unit": "µg/mL"},
      {"measurement": "antibacterial ability (MIC)", "setting": "S. aureus ATCC 19636 [8]; MgCl2 0.5 mM", "value": "> 50", "unit": "µg/mL"},
      {"measurement": "antibacterial ability (MIC)", "setting": "S. aureus ATCC 19636 [8]; MgCl2 1.5 mM", "value": "> 50", "unit": "µg/mL"},
      {"measurement": "antibacterial ability (MIC)", "setting": "S. aureus ATCC 19636 [8]; MgCl2 2.5 mM", "value": "> 50", "unit": "µg/mL"},
      {"measurement": "antibacterial ability (MIC)", "setting": "P. arugenosa ATCC 9027 [9]; NaCl 50 mM", "value": 50},
      {"measurement": "antibacterial ability (MIC)", "setting": "P. arugenosa ATCC 9027 [9]; NaCl 100 mM", "value": 50},
      {"measurement": "antibacterial ability (MIC)", "setting": "P. arugenosa ATCC 9027 [9]; NaCl 200 mM", "value": ">50"},
      {"measurement": "antibacterial ability (MIC)", "setting": "P. arugenosa ATCC 9027 [9]; NaCl 300 mM", "value": ">50"},
      {"measurement": "antibacterial ability (MIC)", "setting": "E. coli ATCC 25922 [10]; NaCl 50 mM", "value": 50},
      {"measurement": "antibacterial ability (MIC)", "setting": "E. coli ATCC 25922 [10]; NaCl 100 mM", "value": 50},
      {"measurement": "antibacterial ability (MIC)", "setting": "E. coli ATCC 25922 [10]; NaCl 200 mM", "value": ">50"},
      {"measurement": "antibacterial ability (MIC)", "setting": "E. coli ATCC 25922 [10]; NaCl 300 mM", "value": ">50"},
      {"measurement": "antibacterial ability (MIC)", "setting": "S. aureus ATCC 25923 [11]; NaCl 50 mM", "value": 50},
      {"measurement": "antibacterial ability (MIC)", "setting": "S. aureus ATCC 25923 [11]; NaCl 100 mM", "value": 50},
      {"measurement": "antibacterial ability (MIC)", "setting": "S. aureus ATCC 25923 [11]; NaCl 200 mM", "value": ">50"},
      {"measurement": "antibacterial ability (MIC)", "setting": "S. aureus ATCC 25923 [11]; NaCl 300 mM", "value": ">50"},
      {"measurement": "minimal inhibition concentration (MIC)", "setting": "[12]", "value": ">50"},
      {"measurement": "minimal inhibition concentration (MIC)", "setting": "[13]", "value": ">50"},
      {"measurement": "minimal inhibition concentration (MIC)", "setting": "[14]", "value": ">50"},
      {"measurement": "minimal inhibition concentration (MIC)", "setting": "[15]", "value": ">50"},
      {"measurement": "minimal inhibition concentration (MIC)", "setting": "[16]", "value": ">50"},
      {"measurement": "minimal inhibition concentration (MIC)", "setting": "[17]", "value": ">50"},
      {"measurement": "antibacterial ability (MIC)", "setting": "S. aureus ATCC 19636 [18]; NaCl 50 mM", "value": 50},
      {"measurement": "antibacterial ability (MIC)", "setting": "S. aureus ATCC 19636 [18]; NaCl 100 mM", "value": 50},
      {"measurement": "antibacterial ability (MIC)", "setting": "S. aureus ATCC 19636 [18]; NaCl 200 mM", "value": ">50"},
      {"measurement": "antibacterial ability (MIC)", "setting": "S. aureus ATCC 19636 [18]; NaCl 300 mM", "value": ">50"}
    ]}
  ]
}
